# Experimental data: ChEMBL document CHEMBL3817738, “Perspectives on the Two-Pore Domain Potassium Channel TREK-1 (TWIK-Related K(+) Channel 1). A Novel Therapeutic Target?” (J Med Chem, 2016)
# Legend:
# [1] = biological target: T1, Potassium channel subfamily K member 2 (Homo sapiens, UniProt O95069); experiment: Inhibition of human TREK1 expressed in HEK293 cells assessed as reduction in channel currents; type: cell-based
# T1 sequence (O95069 whole entry): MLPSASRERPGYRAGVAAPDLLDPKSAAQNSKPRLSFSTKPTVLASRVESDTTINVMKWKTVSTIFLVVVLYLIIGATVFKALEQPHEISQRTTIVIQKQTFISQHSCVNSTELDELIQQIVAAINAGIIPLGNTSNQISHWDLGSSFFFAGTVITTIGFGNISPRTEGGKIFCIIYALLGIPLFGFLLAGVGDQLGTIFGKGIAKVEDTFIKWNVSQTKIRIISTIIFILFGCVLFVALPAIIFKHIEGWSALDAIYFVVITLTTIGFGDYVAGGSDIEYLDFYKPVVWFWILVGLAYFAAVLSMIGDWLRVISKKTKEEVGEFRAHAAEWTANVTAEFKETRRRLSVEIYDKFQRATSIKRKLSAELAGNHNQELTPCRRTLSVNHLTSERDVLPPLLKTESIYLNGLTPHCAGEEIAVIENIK
# [2] = biological target: T1, Potassium channel subfamily K member 2; experiment: Inhibition of human TREK1 expressed in oocytes assessed as reversible current depression; type: cell-based
# [3] = biological target: T2, Potassium channel subfamily K member 10 (Homo sapiens, UniProt P57789); experiment: Inhibition of TREK2 (unknown origin) expressed in oocytes assessed as reduction in channel currents; type: cell-based
# T2 sequence (P57789 whole entry): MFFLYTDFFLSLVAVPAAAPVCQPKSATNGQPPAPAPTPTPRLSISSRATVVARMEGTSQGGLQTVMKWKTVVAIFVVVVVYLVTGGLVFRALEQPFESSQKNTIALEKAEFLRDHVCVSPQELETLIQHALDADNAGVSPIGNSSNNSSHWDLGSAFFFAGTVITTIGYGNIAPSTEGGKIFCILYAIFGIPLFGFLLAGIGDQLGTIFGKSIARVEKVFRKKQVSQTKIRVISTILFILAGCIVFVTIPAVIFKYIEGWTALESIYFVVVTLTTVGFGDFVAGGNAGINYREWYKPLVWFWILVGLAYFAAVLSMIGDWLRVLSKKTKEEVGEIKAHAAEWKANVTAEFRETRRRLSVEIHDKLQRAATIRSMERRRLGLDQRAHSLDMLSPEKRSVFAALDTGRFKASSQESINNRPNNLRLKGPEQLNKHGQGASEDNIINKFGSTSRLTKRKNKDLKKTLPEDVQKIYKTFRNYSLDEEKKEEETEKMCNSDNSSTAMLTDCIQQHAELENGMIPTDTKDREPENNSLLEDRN
# [4] = biological target: T2, Potassium channel subfamily K member 10; experiment: Inhibition of TREK2 (unknown origin) expressed in HEK293 cells assessed as reduction in channel currents; type: cell-based
# [5] = biological target: T3, Potassium channel subfamily K member 2 (Rattus norvegicus, UniProt Q920B6); experiment: Inhibition of rat TREK1 expressed in CHO cells assessed as reversible current depression; type: cell-based
# T3 sequence (Q920B6 whole entry): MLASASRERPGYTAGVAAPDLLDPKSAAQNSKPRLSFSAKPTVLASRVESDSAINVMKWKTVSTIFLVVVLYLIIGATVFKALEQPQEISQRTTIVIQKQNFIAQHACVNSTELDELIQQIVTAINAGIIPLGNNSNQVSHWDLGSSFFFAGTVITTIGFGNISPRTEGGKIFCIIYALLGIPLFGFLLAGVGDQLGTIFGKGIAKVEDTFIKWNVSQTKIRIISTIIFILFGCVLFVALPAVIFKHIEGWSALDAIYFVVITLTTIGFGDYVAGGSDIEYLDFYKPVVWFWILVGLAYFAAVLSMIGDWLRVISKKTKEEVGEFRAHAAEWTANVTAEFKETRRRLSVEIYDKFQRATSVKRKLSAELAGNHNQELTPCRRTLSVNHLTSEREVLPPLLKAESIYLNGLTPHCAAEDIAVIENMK
# [6] = biological target: T4, Potassium channel subfamily K member 2 (Rattus norvegicus) (UniProt Q920B6); settings: CHO, 10 uM
# T4 sequence (whole entry): T3 sequence (Q920B6 whole entry)
# Description: Inhibition of rat TREK1 expressed in CHO cells assessed as reversible current depression at 10 uM
Structure (SMILES),IC50 [1],IC50 [2],IC50 [3],IC50 [4],IC50 [5],inhibition [6]
COc1ccccc1OCCNCC(O)COc1cccc2[nH]c3ccccc3c12 (stereo unspecified) [CARVEDILOL],1.6 µM,20.3 µM,24 µM,7.6 µM,,
CCCC[C@@H]1OC(=O)c2ccccc21 [(3S)-BUTYLPHTHALIDE],,,,,0.06 µM,70%
